The source of these data is patent US9708259B2 (Hoffmann-La Roche Inc., priority 2013, dated 2017).

In experiment [1] the target is T1, human M1 (Homo sapiens, UniProt P11229).
T1 construct: expressed in transfected cells; host or cells: CHO cells
T1 sequence (P11229 1-460): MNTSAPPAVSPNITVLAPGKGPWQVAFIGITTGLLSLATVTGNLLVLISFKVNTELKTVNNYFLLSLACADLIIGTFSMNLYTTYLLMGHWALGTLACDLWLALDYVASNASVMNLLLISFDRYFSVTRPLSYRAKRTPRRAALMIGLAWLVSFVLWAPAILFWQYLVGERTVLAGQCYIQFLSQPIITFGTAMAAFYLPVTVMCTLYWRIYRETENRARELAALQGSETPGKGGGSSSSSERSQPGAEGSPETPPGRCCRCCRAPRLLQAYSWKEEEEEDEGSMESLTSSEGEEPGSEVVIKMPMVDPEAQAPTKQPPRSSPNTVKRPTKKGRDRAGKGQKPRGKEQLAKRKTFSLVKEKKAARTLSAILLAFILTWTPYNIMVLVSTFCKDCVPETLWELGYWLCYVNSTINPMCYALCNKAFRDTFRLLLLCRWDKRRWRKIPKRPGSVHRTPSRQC
The experiment is described as follows: M1 PAM assay (FLIPR intracellular calcium), human M1. Format: cell-based. The essentials:
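CHO cells expressing M1, Fluo-4AM-loaded, in HEPES/probenecid HBSS pH 7.4, 1% DMSO final. Compounds pre-incubated 2 min for agonist activity versus 30 nM acetylcholine control. For PAM activity, acetylcholine EC20 added after the 2 min pre-incubation, then 2 min more before FLIPR intracellular Ca2+ read.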
(In general: A change in cytosolic calcium serves as a functional read-out for many receptors and channels.)

Experiment [2] has as its target T2, ratM1 (Rattus norvegicus, UniProt P08482).
T2 construct: expressed in transfected cells; host or cells: CHO cells (stated generally for the assay, not specifically for rat M1)
T2 sequence (P08482 1-460): T1 sequence (P11229 1-460) with A5V, T254S, P309S, R320K, A337G, I413V
The experiment is described as follows: M1 PAM assay (FLIPR intracellular calcium), rat M1. Type of experiment: cell-based.

[3] abbreviates: CHO human M1 cells, FLIPR Ca2+, with EC20 of acetylcholine, first value of the cell, read-out: hM1 EC50.
The mark [4] stands for this setting: rat M1, FLIPR Ca2+, second value of the cell, read-out: ratM1 EC50.

Substitutions are numbered along the chain they refer to. Where two headings read alike, the source gives them in different places.

What is called EC50 is the concentration that produces a half-maximal response. With `O=C(N[C@H]1CCCC[C@@H]1O)c1cn(Cc2ccc(-c3cncnc3)cc2)c2cccc(F)c12` [Example 158, 4-Fluoro-N-((1S,2S)-2-hydroxycyclohexyl)-1-(4-(pyrimidin-5-yl)benzyl)-1H-indole-3-carboxamide], the EC50 in experiment [1] (setting [3]) was 23 nM; in experiment [2] (setting [4]) it was 61 nM.
Taken in the same sequence, the figures for `O=C(N[C@H]1CCCC[C@@H]1O)c1cn(Cc2ccc(-c3ccccc3)cn2)c2cccc(F)c12` [Example 140] were 103 nM and 518 nM.
Consider `Cn1cc(-c2ccc(Cn3cc(C(=O)NC4CCCCC4)c4c(F)cccc43)c(F)c2)cn1` [Example 20, N-cyclohexyl-4-fluoro-1-(2-fluoro-4-(1-methyl-1H-pyrazol-4-yl)benzyl)-1H-indole-3-carboxamide], for which the EC50 in experiment [1] (setting [3]) was found to be 204 nM; in experiment [2] (setting [4]) it was 425 nM.
For `O=C(N[C@H]1CCOC[C@@H]1O)c1cn(Cc2ccc(-n3cncn3)nc2)c2cccc(F)c12` [Example 78, 1-((6-(1H-1,2,4-triazol-1-yl)yridine-3-yl)methyl)-4-fluoro-N-((3R,4S)-3-hydroxytetrahydro-2H-pyran-4-yl)-1H-indole-3-carboxamide], the EC50 in experiment [1] (setting [3]) was 522 nM; in experiment [2] (setting [4]) it was 728 nM.
For `Cc1ccn(-c2ccc(Cn3cc(C(=O)N[C@H]4CCCC[C@@H]4O)c4c(F)cccc43)cc2)n1` [Example 50, 4-fluoro-N-((1S,2S)-2-hydroxycyclohexyl)-1-(4-(3-methyl-1H-pyrazol-1-yl)benzyl)-1H-indole-3-carboxamide], in that order: 18.3 nM and 13.9 nM.
Taken in the same sequence, the figures for `Cn1cc(-c2ccc(Cn3cc(C(=O)N[C@H]4CCC[C@H]4O)c4c(F)cccc43)c(F)c2)cn1` [Example 24, 4-fluoro-1-(2-fluoro-4-(1-methyl-1H-pyrazol-4-yl)benzyl)-N-((1S,2R)-2-hydroxycyclopentyl)-1H-indole-3-carboxamide] were 46.3 nM and 84.5 nM.
For `CNC(=O)c1ccc(Cn2cc(C(=O)NC3CCCC(F)(F)C3)c3c(F)cccc32)cc1F` (stereo not shown) [Example 130, N-(3,3-difluorocyclohexyl)-4-fluoro-1-(3-fluoro-4-(methylcarbamoyl)benzyl)-1H-indole-3-carboxamide], in that order: 34 nM and 58 nM.
`Cn1cc(-c2ccc(Cn3cc(CC(=O)N[C@H]4CCCC[C@@H]4O)c4c(F)cccc43)c(F)c2)cn1` [Example 93, 2-(4-fluoro-1-(2-fluoro-4-(1-methyl-1H-pyrazol-4-yl)benzyl)-1H-indol-3-yl)-N-((1S,2S)-2-hydroxycyclohexyl)acetamide]: the results for the EC50 in experiment [1] (setting [3]) and in experiment [2] (setting [4]) were 191 nM and 1880 nM, respectively.
`O=C(N[C@H]1CCCC[C@@H]1O)c1cn(Cc2ccc(Cl)cc2)c2cccc(F)c12` [Example 38, 1-(4-chlorobenzyl)-4-fluoro-N-((1S,2S)-2-hydroxycyclohexyl)-1H-indole-3-carboxamide]: the EC50 turned out to be 131 nM in experiment [1] and 382 nM in experiment [2].
In the case of `CNC(=O)c1ccc(Cn2cc(CC(=O)N[C@H]3CCCC[C@@H]3O)c3c(F)cccc32)cc1` [Example 99], the EC50 in experiment [1] (setting [3]) was determined as 54 nM; in experiment [2] (setting [4]), 195 nM.
Taken in the same sequence, the figures for `CNC(=O)c1ccc(Cn2cc(C(=O)NC3CCOC(C)C3)c3c(F)cccc32)cc1` (stereo not shown) [Example 127, 4-fluoro-1-[[4-(methylcarbamoyl)phenyl]methyl]-N-(2-methyloxan-4-yl)indole-3-carboxamide] were 19 nM and 26 nM.
For `CNC(=O)c1ccc(Cn2cc(C(=O)NC3CCS(=O)(=O)CC3)c3c(F)cccc32)cc1` [Example 125, N-(1,1-dioxothian-4-yl)-4-fluoro-1-[[4-(methylcarbamoyl)phenyl]methyl]indole-3-carboxamide], in that order: 166 nM and 623 nM.
Consider `N#Cc1ccc(Cn2cc(C(=O)N[C@H]3CCCC[C@@H]3O)c3c(F)cccc32)cc1` [Example 32, 1-(4-cyanobenzyl)-4-fluoro-N-((1S,2S)-2-hydroxycyclohexyl)-1H-indole-3-carboxamide], for which the EC50 in experiment [1] stood at 105 nM; in experiment [2], 223 nM.
For `O=C(N[C@H]1CCCC[C@@H]1O)c1cn(Cc2cc(F)cc(F)c2)c2cccc(F)c12` [Example 43, 1-(3,5-difluorobenzyl)-4-fluoro-N-((1S,2S)-2-hydroxycyclohexyl)-1H-indole-3-carboxamide], in that order: 488 nM and 632 nM.
Taken in the same sequence, the figures for `O=C(N[C@H]1CCCC[C@@H]1O)c1cn(Cc2ccccc2)c2cccc(F)c12` [Example 47, 1-benzyl-4-fluoro-N-((1S,2S)-2-hydroxycyclohexyl)-1H-indole-3-carboxamide] were 118 nM and 393 nM.
Turning to `Cn1cc(-c2ccc(Cn3cc(C(=O)NC4CCC4)c4c(F)cccc43)cc2)cn1` [Example 11, N-cyclobutyl-4-fluoro-1-(4-(1-methyl-1H-pyrazol-4-yl)benzyl)-1H-indole-3-carboxamide], the EC50 is 413 nM in experiment [1] (setting [3]) and 618 nM in experiment [2] (setting [4]).
For `CNC(=O)c1ccc(Cn2cc(C(=O)N[C@H]3CCCC[C@@H]3O)c3c(F)cccc32)c(F)c1` [Example 86, 4-fluoro-1-(2-fluoro-4-(methylcarbamoyl)benzyl)-N-((1S,2S)-2-hydroxycyclohexyl)-1H-indole-3-carboxamide], in that order: 6.91 nM and 13 nM.
Take `CNC(=O)c1ccc(Cn2cc(C(=O)NC3CCOCC3)c3c(F)cccc32)cn1` [Example 147, 4-fluoro-1-((6-(methylcarbamoyl)pyridin-3-yl)methyl)-N-(tetrahydro-2H-pyran-4-yl)-1H-indole-3-carboxamide]: the EC50 in experiment [1] (setting [3]) worked out at 197 nM; in experiment [2] (setting [4]) it was 323 nM.
`Cn1cc(-c2ccc(Cn3cc(C(=O)NC4CCOCC4)c4c(F)cccc43)cc2)cn1` [Example 65, Fluoro-1-(4-(1-methyl-1H-pyrazol-4-yl)benzyl)-N-(tetrahydro-2H-pyran-4-yl)-1H-indole-3-carboxamide]: the EC50 in experiment [1] (setting [3]) came out at 32.4 nM; in experiment [2] (setting [4]), 59.9 nM.
`COc1ccc(Cn2cc(C(=O)N[C@H]3CCCC[C@@H]3O)c3c(F)cccc32)cc1` [Example 31, 4-fluoro-N-((1S,2S)-2-hydroxycyclohexyl)-1-(4-methoxybenzyl)-1H-indole-3-carboxamide]: the EC50 in experiment [1] was 90.6 nM; in experiment [2] it was 160 nM.
As to `Cn1cc(-c2ccc(Cn3nc(C(=O)N[C@H]4CCOC[C@@H]4O)c4c(F)ccc(F)c43)cn2)cn1` [Example 74, 4,7-difluoro-N-((3R,4S)-3-hydroxytetrahydro-2H-pyran-4-yl)-1-((6-(1-methyl-1H-pyrazol-4-yl)yridine-3-yl)methyl)-1H-indazole-3-carboxamide], the EC50 in experiment [1] (setting [3]) is 54.8 nM; in experiment [2] (setting [4]), 48.9 nM.
For `CNC(=O)c1ccc(Cn2cc(C(=O)NC3CCCCC3)c3c(F)cccc32)cc1` [Example 114, N-cyclohexyl-4-fluoro-1-[[4-(methylcarbamoyl)phenyl]methyl]indole-3-carboxamide], in that order: 17 nM and 15 nM.
For `Cn1cc(-c2ccc(Cn3cc(C(=O)N[C@H]4CCC[C@@H]4O)c4c(F)cccc43)c(F)c2)cn1` [Example 17, 4-Fluoro-1-(2-fluoro-4-(1-methyl-1H-pyrazol-4-yl)benzyl)-N-((1S,2S)-2-hydroxycyclopentyl)-1H-indole-3-carboxamide], in that order: 100 nM and 169 nM.
